Source: patent US20220378699A1, “SELF-E[…] EXTRACT” (ISRAEL PLASTICS AND RUBBER CENTER LTD., priority 2019, published 2022)
Like-named read-outs stand apart in the source and are kept apart here.

Assay: In-vivo evaluation: phytocannabinoid serum concentrations after oral administration
Design: species or system mice (C57BL/6 J)
Details: male, C57BL/6J, mouse, mice, 5 mg CBD/kg, 90 min after dosing, average ± standard error
Experimental: Animal studies were performed in compliance with the Guide for the Care and Use of Laboratory Animals established by the National Institutes of Health. All procedures and protocols were approved by the Technion Administrative Panel of Laboratory Animal Care (#:IL_050-05-2018).
Subjects 10 adult male mice (C57BL/6 J; The Jackson Laboratory), weighing 20-30 gr were housed in standard laboratory conditions with controlled temperature, humidity, light/dark cycle, ad libitum access to water and regular diet. The experiment was performed at noon, during the light cycle.
CME tea was prepared by pouring 13.3 ml of hot di-ionized water (80° c) over 20 mg of dry SE particles, resulting in CME concentration of […]. The mixture was then genteelly stirred until complete dissolution was observed.
The control solution was prepared by dissolving CME in a solution of 1:1:18 EtOH: Cremophor: PBS. First, 8.5 mg of CME were dissolved in 0.5 ml of EtOH. After that 0.5 ml of Cremophor was added and the mixture was stirred for one hour. Finally, 9 ml of PBS were added, and the mixture was stirred for 30 minutes. Both CME tea and control solution concentrations were calculated to match a dose of 5 mg CBD/kg for a volume intake of 200 μl and an average mouse weight of 25 gr.
For both the control group (5 mice) and the experiment group (5 mice) a dose of 200 μl was orally administered via direct injection to the stomach.
The mice were sacrificed 1.5 hours after oral administration. Blood samples were immediately taken and stored for further examination.
A sample of 600 μl of an extraction solution containing 0.1% v/v acetic acid in a methanol: acetonitrile 1:1 mixture, spiked with 20 ng/ml deuterated internal standards (ISs) was added to 200 μl serum sample. Samples were than vortexed and centrifuged in order to enable protein and cell precipitation. 3 ml of 0.1% v/v acetic acid in water was then added to the supernatants and the sample was loaded onto Agela Cleanert C8 solid phase extraction (SPE) cartridges (500 mg of sorbent, 50 μm particle size). Elution of phytocannabinoids from the columns was done using 2 ml of 0.1% v/v acetic acid in methanol, followed by an evaporation and reconstituted in 100 μl ethanol.
Cannabinoid quantitation was performed as described by P. Berman et al. (Berman et al., 2018).
Phytocannabinoids serum concentrations were evaluated 90 min after oral administration to mice, as detailed above. The control group included a Cremophor EL (castor oil) based emulsion formulation, widely used for its potent solubilizing effect (Comelli F, Giagnoni G, Bettoni I, Colleoni M, 2008). The study group included the F2 tea formulation prepared at 0.62 mg CBD/mL, with both formulations providing 5mg/kg of CBD per body weight.

[1] = CME in Cremophor EL emulsion (1:1:18 EtOH:Cremophor:PBS), read-out: Serum concentration, Control group
[2] = po, F2 tea formulation, read-out: Serum Concentration, Experiment Group

SMILES | concentration at 90 min [1] [ng/mL] | concentration at 90 min [2] [ng/mL]
CCCCCc1cc(O)c2c(c1)OC(C)(CCC=C(C)C)C=C2 (centres unmarked) [CBC, cannabichromene] | 247 ± 48 | 210 ± 72
C=C(C)[C@@H]1CCC(C)=C[C@H]1c1c(O)cc(CCCCC)cc1O [CBD, cannabidiol] | 3100 ± 970 | 1500 ± 130
CCCCCc1cc(O)c2c(c1)OC(C)(C)c1ccc(C)cc1-2 [CBN, cannabinol] | 100 ± 5 | 125 ± 12
CCCCCc1cc(O)c2c(c1)OC(C)(C)[C@@H]1CCC(C)=C[C@@H]21 [THC, (—)-trans-Δ^9-tetrahydrocannabinol] | 343 ± 90 | 115 ± 15
